Assay: Bulk density and tapped density of mesalamine powder (USP Test 616)
Format: physicochemical
Details: mesalamine used to prepare the composition as per Example 3
Description: Important physicochemical characteristics of powders are the density properties such as bulk and tapped density, weight variation and flow properties such as angle of repose. Bulk density is the undisturbed packing density of that substance and tapped density relates to the packing density after tapping a bed of substance until no change in the packing density is seen. Bulk density and tapped density, can be determined using compendial bulk density apparatus, such as the method given in Test 616 “Bulk Density and Tapped Density,” United States Pharmacopeia 29, United States Pharmacopeial Convention, Inc., Rockville, Md., 2005 (“USP”).

bulk density: 0.483 g/mL
tapped density: 0.694 g/mL
Structure (SMILES): Nc1ccc(O)c(C(=O)O)c1 [Mesalamine, mesalamine]

From patent US20160045442A1, “STABLE PHARMACEUTICAL COMPOSITIONS OF MESALAMINE” (CADILA HEALTHCARE LIMITED, priority 2014, published 2016)
